Experimental data taken from patent publication US12059398B2, “Compositions of 1,3-butanediol and beta-hydroxybutyric acid to provide optimal therapeutic ketosis” (Health Via Modern Nutrition Inc., priority 2022, dated 2024).

How the values were obtained:
[1] = Blood D-BHB pharmacokinetics comparison of ketogenic nutritional compositions after ingestion; format: in vivo; conditions: for Blood D-BHB: dose 0.5 g (total BDO or BHB)/bodyweight kg, ingestion
Protocol: FIG. 1 is a graph showing the blood D-BHB pharmacokinetics for eight ketogenic compositions, reporting blood D-BHB mM over a time period of six hours following ingestion of the ketogenic compositions.
The blood D-BHB pharmacokinetics produced by different ketogenic nutritional compositions were evaluated and compared. The nutritional compositions include: 100% R-BDO; 90 wt. % R-BDO+10 wt. % D-BHB (acid/salt); 85 wt. % R-BDO+15 wt. % D-BHB (acid/salt); 80 wt. % R-BDO+20 wt. % D-BHB (acid/salt); 75 wt. % R-BDO+25 wt. % D-BHB (acid/salt); 70 wt. % BDO+30 wt. % D-BHB; 60 wt. % BDO+40 wt. % D-BHB; and 50% BDO+50% D-BHB via R-1,3 BDO−D-BHB monoester. The compositions were administered at a dose of 0.5 g (total BDO or BHB excluding mineral or base pairs)/bodyweight kg.
The nutritional compositions include: 100% R-BDO; 90 wt. % R-BDO+10 wt. % D-BHB (acid/salt); 85 wt. % R-BDO+15 wt. % D-BHB (acid/salt); 80 wt. % R-BDO+20 wt. % D-BHB (acid/salt); 75 wt. % R-BDO+25 wt. % D-BHB (acid/salt); 70 wt. % BDO+30 wt. % D-BHB; 60 wt. % BDO+40 wt. % D-BHB; and 50% BDO+50% D-BHB via R-1,3 BDO−D-BHB monoester.
By integrating over time rather than looking at individual concentration measurements, a more accurate estimate of the overall exposure to the drug is obtained.

[2] = tested on: potassium channels and nitric oxide synthase; conditions: cited from earlier work
[3] = dose 0.5 g/bodyweight kg, six hours following ingestion

| Compound | Blood D-BHB ([1]; 0 minutes) [mM] | Blood D-BHB ([1]; 60 minutes) [mM] | Blood D-BHB ([1]; 120 minutes) [mM] | Blood D-BHB ([1]; 180 minutes) [mM] | Blood D-BHB ([1]; 240 minutes) [mM] | Blood D-BHB ([1]; 300 minutes) [mM] | Blood D-BHB ([1]; 360 minutes) [mM] | Duration of Blood D-BHB Concentrations between 1 mM and 2.5 mM [1, 3] [min] | Total AUC mM × minutes in optimal therapeutic ketosis range of 1-2.5 mM [1, 3] [mM·min] | Effect on age-associated endothelial-dependent and -independent dysfunction ([2]; not associated with increased blood BHB concentration) | Direct vasodilator mechanism ([2]; through activation of potassium channels and nitric oxide synthase) |
| --- | --- | --- | --- | --- | --- | --- | --- | --- | --- | --- | --- |
| R-1,3 BDO−D-BHB monoester | 0.3 | 4.3 | 1.9 | 1.3 | 0.5 | 0.3 | 0.2 | 158 | 98.3 |  |  |
| C[C@@H](O)CCO [100% R-1,3-BDO (natural), R-1,3-butanediol] |  |  |  |  |  |  |  |  |  | sufficient to reverse age-associated endothelial-dependent and -independent dysfunction | predominantly an endothelium-dependent vasodilator |
